Results: patent US9751869B2, “LXR modulators” (BRISTOL-MYERS SQUIBB COMPANY, priority 2013, dated 2017)

Molecular target: T1, LXRβ (Homo sapiens, UniProt P55055)
T1 construct: Co-transfection expression plasmids, comprising full-length LXRα (pCMX-h LXRα or LXRβ (pCMX-hLXRβ)); expressed in transfected cells; host or cells: CV-1 African green monkey kidney cells, transient transfection with pCMX-hLXRβ
T1 sequence (P55055 1-460): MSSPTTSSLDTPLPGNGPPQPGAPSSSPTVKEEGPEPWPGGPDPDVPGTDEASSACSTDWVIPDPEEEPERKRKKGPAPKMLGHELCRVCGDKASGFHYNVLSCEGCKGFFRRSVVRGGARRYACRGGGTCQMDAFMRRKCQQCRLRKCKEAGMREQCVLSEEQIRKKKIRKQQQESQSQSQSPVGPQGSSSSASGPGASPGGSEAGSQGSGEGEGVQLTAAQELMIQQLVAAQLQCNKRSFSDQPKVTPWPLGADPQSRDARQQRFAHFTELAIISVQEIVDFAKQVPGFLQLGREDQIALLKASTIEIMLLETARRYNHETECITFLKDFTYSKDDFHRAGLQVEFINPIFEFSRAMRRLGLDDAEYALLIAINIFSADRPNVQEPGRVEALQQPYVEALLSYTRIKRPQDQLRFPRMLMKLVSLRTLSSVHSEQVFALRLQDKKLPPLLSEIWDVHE
T1 sequence (P19793 1-462 partner): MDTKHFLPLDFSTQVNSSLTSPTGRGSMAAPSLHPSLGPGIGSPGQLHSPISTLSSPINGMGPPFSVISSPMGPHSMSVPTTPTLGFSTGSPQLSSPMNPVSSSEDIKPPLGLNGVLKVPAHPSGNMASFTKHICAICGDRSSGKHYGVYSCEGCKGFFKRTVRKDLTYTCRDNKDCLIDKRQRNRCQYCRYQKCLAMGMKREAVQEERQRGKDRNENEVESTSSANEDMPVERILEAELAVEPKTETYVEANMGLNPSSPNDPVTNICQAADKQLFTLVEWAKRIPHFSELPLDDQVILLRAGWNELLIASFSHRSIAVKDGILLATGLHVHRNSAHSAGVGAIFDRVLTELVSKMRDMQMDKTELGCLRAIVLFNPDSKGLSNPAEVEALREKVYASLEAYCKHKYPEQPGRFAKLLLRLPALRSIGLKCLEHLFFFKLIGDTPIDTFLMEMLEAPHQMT
Experiment: LXR/LXRE co-transfection assay (luciferase reporter) in CV-1 cells, LXRβ
Format: cell-based
Conditions: for EC50: CV-1 cells transfected with pCMX-hLXRβ and LXREx1-Tk-Luciferase, 20 hours incubation, read-out: LXRbeta agonism EC50; for Emax: CV-1 cells, relative to maximum response of high control N-(3-((4-fluorophenyl)-(naphthalene-2-sulfonyl)amino)propyl)-2,2-dimethylpropionamide, read-out: LXRbeta % EFFICACY
Outline: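 Luciferase read-out after 20 h compound treatment at 37 °C of CV-1 cells carrying transfected hLXRβ plus one-copy LXRE reporter, endogenous RXR partnering. Sigmoidal fit of 10-point half-log curves (4 wells each) gave EC50; % efficacy versus maximal response of the propionamide reference agonist.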

Row | SMILES | EC50 | Emax
1 | Cc1nc(-c2ccc3c(c2)OC(F)(F)O3)c(-c2cc(-c3cccc(S(C)(=O)=O)c3)ccc2-c2cc(C(=O)NC3CC3)nn2C)o1 [Example 107, N-cyclopropyl-5-(3-(4-(2,2-difluorobenzo[d][1,3]dioxol-5-yl)-2-methyloxazol-5-yl)-3′-(methylsulfonyl)-[1,1′-biphenyl]-4-yl)-1-methyl-1H-pyrazole-3-carboxamide] | 1250 nM | 37%
2 | Cc1nc(-c2ccc3c(c2)OC(F)(F)O3)c(-c2cc(-c3cc(F)c(CO)c(S(C)(=O)=O)c3)ccc2-c2cc(C(=O)NC3CC3)nn2C)o1 [Example 108, N-cyclopropyl-5-(3-(4-(2,2-difluorobenzo[d][1,3]dioxol-5-yl)-2-methyloxazol-5-yl)-3′-fluoro-4′-(hydroxymethyl)-5′-(methylsulfonyl)-[1,1′-biphenyl]-4-yl)-1-methyl-1H-pyrazole-3-carboxamide] | 529 nM | 30%
3 | Cc1nc(-c2cc(-c3cccc(S(C)(=O)=O)c3)ccc2-n2ccc(C(F)(F)F)n2)c(-c2cc(F)c(OC(F)F)c(F)c2)o1 [Example 409, 5-(4-(difluoromethoxy)-3,5-difluorophenyl)-2-methyl-4-(3′-(methylsulfonyl)-4-(3-(trifluoromethyl)-1H-pyrazol-1-yl)biphenyl-3-yl)oxazole] | 45 nM | 69%
4 | Cc1nc(-c2cc(-c3cc(F)c(CO)c(S(C)(=O)=O)c3)ccc2-n2nc(C(F)(F)F)cc2C)c(-c2ccc(OC(F)F)cc2)o1 [Example 384, (3′-(5-(4-(difluoromethoxy)phenyl)-2-methyloxazol-4-yl)-3-fluoro-4′-(5-methyl-3-(trifluoromethyl)-1H-pyrazol-1-yl)-5-(methylsulfonyl)biphenyl-4-yl)methanol] | 15 nM | 73%
5 | Cc1nc(-c2ccc3c(c2)OC(F)(F)O3)c(-c2cc(-c3cc(F)c(CO)c(S(C)(=O)=O)c3)ccc2-c2cc(C(F)(F)C(=O)NC(C)(C)C)nn2C)o1 [Example 84, N-tert-butyl-2-(5-(3-(4-(2,2-difluorobenzo[d][1,3]dioxol-5-yl)-2-methyloxazol-5-yl)-3′-fluoro-4′-(hydroxymethyl)-5′-(methylsulfonyl)biphenyl-4-yl)-1-methyl-1H-pyrazol-3-yl)-2,2-difluoroacetamide] | 61 nM | 26%
6 | Cc1nc(-c2ccc(OC(F)(F)F)cc2)c(-c2cc(-c3cc(F)c(CO)c(S(C)(=O)=O)c3)ccc2-n2cc(Cl)c(C(F)(F)F)n2)o1 [Example 379, (4′-(4-chloro-3-(trifluoromethyl)-1H-pyrazol-1-yl)-3-fluoro-3′-(2-methyl-4-(4-(trifluoromethoxy)phenyl)oxazol-5-yl)-5-(methylsulfonyl)-[1,1′-biphenyl]-4-yl)methanol] | 27 nM | 86%
7 | Cc1nc(-c2ccc3c(c2)OC(F)(F)O3)c(-c2cc(-c3cccc(S(C)(=O)=O)c3)ccc2-n2ccc(CO)n2)o1 [Example 363, (1-(3-(4-(2,2-difluorobenzo[d][1,3]dioxol-5-yl)-2-methyloxazol-5-yl)-3′-(methylsulfonyl)-[1,1′-biphenyl]-4-yl)-1H-pyrazol-3-yl)methanol] | 1520 nM | 22%
8 | Cc1nc(-c2ccc(Cl)cc2Cl)c(-c2cc(-c3cccc(S(C)(=O)=O)c3)ccc2-n2cc(Cl)c(C(F)(F)F)n2)o1 [Example 423, 5-(4-(4-chloro-3-(trifluoromethyl)-1H-pyrazol-1-yl)-3′-(methylsulfonyl)-[1,1′-biphenyl]-3-yl)-4-(2,4-dichlorophenyl)-2-methyloxazole] | 60 nM | 78%

The next lines start with the values.

Row | EC50 | Emax | SMILES
9 | 91 nM | 79% | CN(C)S(=O)(=O)c1cccc(-c2ccc(-c3cc(C(C)(F)F)nn3C)c(-n3nncc3-c3ccc(OC(F)(F)F)cc3)c2)c1 [Example 19, 4′-[3-(1,1-difluoroethyl)-1-methyl-1H-pyrazol-5-yl]-N,N-dimethyl-3′-(5-{4-[(trifluoromethyl)oxy]phenyl}-1H-1,2,3-triazol-1-yl)biphenyl-3-sulfonamide]
10 | 695 nM | 76% | Cn1nc(C(=O)NC(C)(C)C)cc1-c1ccc(-c2cccc(S(C)(=O)=O)c2)cc1-n1nncc1-c1ccc(OC(F)(F)F)cc1 [Example 40, N-(1,1-dimethylethyl)-1-methyl-5-[3′-(methylsulfonyl)-3-(5-{4-[(trifluoromethyl)oxy]phenyl}-1H-1,2,3-triazol-1-yl)biphenyl-4-yl]-1H-pyrazole-3-carboxamide]
11 | 71 nM | 64% | Cc1nc(-c2ccc3c(c2)OC(F)(F)O3)c(-c2cc(-c3cccc(S(C)(=O)=O)c3)ccc2-c2cc(C(F)(F)CO)nn2C)o1 [Example 106, 2-(5-(3-(4-(2,2-difluorobenzo[d][1,3]dioxol-5-yl)-2-methyloxazol-5-yl)-3′-(methylsulfonyl)-[1,1′-biphenyl]-4-yl)-1-methyl-1H-pyrazol-3-yl)-2,2-difluoroethanol]
12 | 1300 nM | 53% | Cc1nc(-c2ccc(OC(F)(F)F)cc2)c(-c2cc(-c3cccc(C(C)(C)C(N)=O)c3)ccc2-n2ccc(COC(N)=O)n2)o1 [Example 376, (1-(3′-(1-amino-2-methyl-1-oxopropan-2-yl)-3-(2-methyl-4-(4-(trifluoromethoxy)phenyl)oxazol-5-yl)-[1,1′-biphenyl]-4-yl)-1H-pyrazol-3-yl)methyl carbamate]
13 | 27 nM | 75% | Cc1nc(-c2cc(-c3cccc(S(C)(=O)=O)c3)ccc2-n2cc(Cl)c(C(F)(F)F)n2)c(-c2ccc(OC(F)(F)F)cc2)o1 [Example 310, 4-(4-(4-chloro-3-(trifluoromethyl)-1H-pyrazol-1-yl)-3′-(methylsulfonyl)-[1,1′-biphenyl]-3-yl)-2-methyl-5-(4-(trifluoromethoxy)phenyl)oxazole]
14 | 769 nM | 24% | Cc1nc(-c2ccc(OC(F)(F)F)cc2)c(-c2cc(-c3cccc(S(C)(=O)=O)c3)ccc2-c2cc(C(=O)NCC(C)(C)O)nn2C)o1 [Example 124]
15 | 2730 nM | 91% | Cn1nc(C(F)(F)CO)cc1-c1ccc(-c2cc(F)c(CO)c(S(C)(=O)=O)c2)cc1-n1nncc1-c1ccc2c(c1)OC(F)(F)O2 [Example 36, 2-(5-(3-(5-(2,2-difluorobenzo[d][1,3]dioxol-5-yl)-1H-1,2,3-triazol-1-yl)-3′-fluoro-4′-(hydroxymethyl)-5′-(methylsulfonyl)-[1,1′-biphenyl]-4-yl)-1-methyl-1H-pyrazol-3-yl)-2,2-difluoroethanol]
16 | 46 nM | 27% | Cc1nc(-c2ccc(OC(F)(F)F)cc2)c(-c2cc(-c3cccc(S(C)(=O)=O)c3)ccc2-c2cc(C(F)(F)C(C)(C)O)nn2C)o1 [Example 48, 1,1-difluoro-2-methyl-1-(1-methyl-5-(3-(2-methyl-4-(4-(trifluoromethoxy)phenyl)oxazol-5-yl)-3′-(methylsulfonyl)biphenyl-4-yl)-1H-pyrazol-3-yl)propan-2-ol]
17 | 424 nM | 76% | Cc1nc(-c2ccc(OC(F)(F)F)cc2)c(-c2cc(-c3cccc(C(C)(C)C(N)=O)c3)ccc2-n2ccc(CC#N)n2)o1 [Example 365, 2-(4′-(3-(cyanomethyl)-1H-pyrazol-1-yl)-3′-(2-methyl-4-(4-(trifluoromethoxy)phenyl)oxazol-5-yl)-[1,1′-biphenyl]-3-yl)-2-methylpropanamide]
18 | 203 nM | 71% | Cc1cc(C(C)(F)F)n(-c2ccc(-c3cccc(S(C)(=O)=O)c3)cc2-n2nncc2-c2ccc(OC(F)(F)F)cc2)n1 [Example 306, 1-{4-[5-(1,1-difluoroethyl)-3-methyl-1H-pyrazol-1-yl]-3′-(methylsulfonyl)biphenyl-3-yl}-5-{4-[(trifluoromethyl)oxy]phenyl}-1H-1,2,3-triazole]
19 | 100 nM | 63% | Cc1nc(-c2cc(-c3cc(F)c(CO)c(S(C)(=O)=O)c3)ccc2-n2nc(C(F)(F)F)cc2Cl)c(-c2ccc(OC(F)(F)F)cc2)o1 [Example 405, (4′-(5-chloro-3-(trifluoromethyl)-1H-pyrazol-1-yl)-3-fluoro-3′-(2-methyl-5-(4-(trifluoromethoxy)phenyl)oxazol-4-yl)-5-(methylsulfonyl)biphenyl-4-yl)methanol]
